Measured values: article PMC10382584, “Macrocyclization of linear molecules by deep learning to facilitate macrocyclic drug candidates discovery” (Nature Communications, 2023)
Values joined by “and” are separate entries in the source; they are usually repeats but may differ in a detail not shown here. Equal entries are not always repeated. Where two headings read alike, the source gives them in different places.

Legend:
[1] = test system: DSS-induced colitis mice; experiment: In vivo efficacy study, DSS-induced colitis model; set-up: species or system male BALB/c mice; conditions: SASP 500 mg/kg; for Body weight (Fig. 6a) / DAI score (Fig. 6b): individual mice
[2] = target: T1, JAK2 (Homo sapiens, UniProt O60674); experiment: JAK2 enzyme assay (Z'-LYTE kinase assay kit); assay type: biochemical
T1 construct: 0.05–0.42 ng JAK2, 2 μM peptide substrate (Tyr06)
Procedure: JAK kinase activity assays were performed using Z’-LYTETM kinase assay kit (Life Technologies, pv4122). […] The mixture was added into the 384-well microplate, shaken gently, and then incubated at room temperature for 1 h. Subsequently, 5 μL development solution was added to the well for incubating another 1 h. Finally, 5 μL stop reagent was added to stop the reaction. […] IC50 values were calculated using GraphPad Prism v8.0.3, and three parallel experiments were performed.

[3] = test system: HEL cells; experiment: Cell proliferation assay (CCK-8), HEL cells; assay type: cell-based, human; conditions: for Inhibition (%): single wells, replicates 1 and 2
Procedure: (§1) The human erythroid leukemia (HEL 92.1.7) cells were purchased from the American Type Culture Collection (ATCC, TIB-180), and the human megakaryoblastic (SET2) cells were obtained from German Collection of Microorganisms and Cell Cultures (DSMZ, ACC 608). The anti-proliferative activities of compounds were evaluated using WST-8 cell counting kit-8 (Elabscience). HEL and SET-2 cells were seeded at 5000 cells/well in 70 μL RPMI-1640 medium (Hyclon) with 10% FBS (Gibco) to the 96-well plate and incubated overnight at 37 °C with 5% CO2. The compounds were serially diluted in RPMI-1640 medium, and cells were treated separately with 30 μL various concentrations of compounds for 72 h. The final DMSO concentration in the culture wells was 0.1%, which had no effect on the cell viability. Finally, 10 μL of CCK-8 solution was added into the wells. 4 h later, the absorbance values at 450 nm were recorded. IC50 values were determined using GraphPad Prism v8.3.0, and three parallel experiments were performed.

[4] = test system: SET-2 cells; experiment: Cell proliferation assay (CCK-8), SET-2 cells; assay type: cell-based, human; conditions: for Inhibition (%): single wells, replicates 1 and 2
Procedure: as §1

[5] = Chemical stability in DMSO stock solution (HPLC purity); assay type: physicochemical; conditions: mean±SD
Source text: compounds were formulated in the solubilizing vehicle (5% DMSO/30% PEG400/65% […]
safety to the mice in the test.
6. What was the sample dissolved in for the in vitro and in vivo experiments? Response: The solvent information for the in vitro and in vivo experiments has been added in the revised manuscript. […]
7. Was the stability of the different compounds assessed and compared to Fedratinib? This is generally a critical point in macrocyclic studies. […]
in DMSO stock solution. Test compounds were incubated at room temperature and 60 ℃, respectively, for 72 h, and their purities (%) were determined using HPLC equipped with a CORTECS C18 column (4.6*50 mm, 2.7 μm particle size) and a UV/VIS detector setting of λ=210 nm. All co mpounds were eluted with the two solvent systems ([…] as organic phase in Method I and CH3OH as organic phase in Method II) at a flow rate of 0.3 ml/min. Each experiment repeated for three times and the results are represented as mean±SD.
Ta b e l R 1 . Comparison of chemical stability of different compounds at room temperature and 60 ℃, respectively.

T1 sequence (O60674 whole entry): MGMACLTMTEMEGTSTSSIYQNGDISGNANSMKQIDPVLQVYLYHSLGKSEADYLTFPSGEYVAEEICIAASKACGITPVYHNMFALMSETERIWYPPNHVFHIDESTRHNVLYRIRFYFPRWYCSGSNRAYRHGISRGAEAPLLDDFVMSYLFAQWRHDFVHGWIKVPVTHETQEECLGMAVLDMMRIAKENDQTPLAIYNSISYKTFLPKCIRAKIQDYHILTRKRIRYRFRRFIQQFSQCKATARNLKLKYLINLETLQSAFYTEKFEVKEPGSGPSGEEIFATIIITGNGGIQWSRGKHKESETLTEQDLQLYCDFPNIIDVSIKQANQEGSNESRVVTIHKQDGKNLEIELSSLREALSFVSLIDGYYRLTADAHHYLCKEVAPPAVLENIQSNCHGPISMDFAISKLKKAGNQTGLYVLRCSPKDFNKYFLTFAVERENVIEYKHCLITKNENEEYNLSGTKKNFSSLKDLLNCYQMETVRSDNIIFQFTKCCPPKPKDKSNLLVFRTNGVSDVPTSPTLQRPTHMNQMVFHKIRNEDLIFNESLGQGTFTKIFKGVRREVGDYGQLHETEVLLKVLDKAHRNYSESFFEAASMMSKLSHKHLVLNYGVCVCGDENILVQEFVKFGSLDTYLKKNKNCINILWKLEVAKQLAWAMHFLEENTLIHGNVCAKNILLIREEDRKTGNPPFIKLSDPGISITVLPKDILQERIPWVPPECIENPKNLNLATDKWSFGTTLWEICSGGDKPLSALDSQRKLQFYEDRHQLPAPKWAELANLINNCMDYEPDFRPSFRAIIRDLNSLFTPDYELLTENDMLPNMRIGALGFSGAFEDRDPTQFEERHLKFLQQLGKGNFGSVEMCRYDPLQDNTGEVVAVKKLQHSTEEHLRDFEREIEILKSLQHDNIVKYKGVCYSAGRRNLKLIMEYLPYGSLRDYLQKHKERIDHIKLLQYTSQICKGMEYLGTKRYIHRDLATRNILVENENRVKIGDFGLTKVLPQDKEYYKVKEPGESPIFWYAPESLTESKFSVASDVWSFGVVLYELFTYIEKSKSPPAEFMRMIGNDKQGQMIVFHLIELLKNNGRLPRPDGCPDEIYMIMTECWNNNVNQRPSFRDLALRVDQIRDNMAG

O=C(O)c1cc(/N=N/c2ccc(S(=O)(=O)Nc3ccccn3)cc2)ccc1O [Salicylazosulfapyridine]
Body weight (Fig. 6a) ([1]; day 0): 22.7 and 23.7 and 19.3 and 23.6 and 21.6 and 22.9 and 21.7 (2×)
DAI score (Fig. 6b) ([1]; day 0): 0
DAI score (Fig. 6b) ([1]; day 1): 0 (7×) and 1
Body weight (Fig. 6a) ([1]; day 1, in g (unit assumed)): 23.2 and 23.6 and 22.1 and 24.5 and 21.4 and 22.4 and 22 and 22.5
DAI score (Fig. 6b) ([1]; day 2): 0 (7×) and 1
Body weight (Fig. 6a) ([1]; day 2, in g (unit assumed)): 23.3
DAI score (Fig. 6b) ([1]; day 3): 1 (6×) and 0 (2×)
DAI score (Fig. 6b) ([1]; day 4): 4 and 2 and 1 (4×) and 3 and 0
Body weight (Fig. 6a) ([1]; day 4, in g (unit assumed)): 22.3 and 22.4 and 22.1 and 23.7 and 20.4 and 22.9 and 21.3 and 22.8
DAI score (Fig. 6b) ([1]; day 5): 4 and 2 (4×) and 1 (2×) and 6
Body weight (Fig. 6a) ([1]; day 5, in g (unit assumed)): 20.8 and 20.9 and 21.8 and 22.6 and 19.7 and 21.4 and 20.2 and 21.2
DAI score (Fig. 6b) ([1]; day 6): 5 (4×) and 7 and 3 and 1 (2×)
Body weight (Fig. 6a) ([1]; day 6, in g (unit assumed)): 19 and 19.1 and 21.1 and 21.3 and 18.6 and 19.3 and 19.2 and 20.2
DAI score (Fig. 6b) ([1]; day 7): 8 and 6 and 1 and 4 and 5 (2×) and 3 and 2
Body weight (Fig. 6a) ([1]; day 7, in g (unit assumed)): 16.8 and 17.9 and 20.5 and 20.7 and 18.1 and 17.6 and 17 and 18.6
DAI score (Fig. 6b) ([1]; day 8): 2 (2×) and 5 and 1 (3×) and 0 (2×)
Body weight (Fig. 6a) ([1]; day 8, in g (unit assumed)): 16.9 and 16.6 and 19.6 and 19.9 and 16.5 and 17.3 and 18.4 and 19.2
Body weight (Fig. 6a) ([1]; day 9): 18 (2×) and 17.2 and 19.6 and 20.6 and 15.7 and 19.4 and 20.8
DAI score (Fig. 6b) ([1]; day 9): 0 (7×) and 1
DAI score (Fig. 6b) ([1]; day 10): 2 (4×) and 1 (2×) and 3 and 0
Body weight (Fig. 6a) ([1]; day 10, in g (unit assumed)): 17.1 and 16.7 and 19.2 and 21.8 and 17.6 and 20.2 and 22.1
DAI score (Fig. 6b) ([1]; day 11): 0 (5×) and 1 (2×)
Body weight (Fig. 6a) ([1]; day 11, in g (unit assumed)): 17.6 and 16.3 and 19.7 and 21.9 and 19.1 and 19.8 and 22.6
DAI score (Fig. 6b) ([1]; day 12): 0
Body weight (Fig. 6a) ([1]; day 12, in g (unit assumed)): 19 and 17.1 and 20.3 and 22.2 and 19.5 and 21.5 and 22.4
Body weight (Fig. 6a) ([1]; day 13, in g (unit assumed)): 18.8 and 17.7 and 20 and 23.6 and 20.2 and 21.5 and 22.6
Body weight (Fig. 6a) ([1]; day 14, in g (unit assumed)): 19.5 and 18.6 and 19.8 and 24.4 and 21 and 22.1 and 22.5
HE staining score (Fig. 6d) ([1]; individual colon tissues (n = 8)): 3 and 1 and 2

Cc1cnc2nc1Nc1cccc(c1)C(=O)N(C)Cc1cc(ccc1OCCN1CCCC1)N2 [Compound 2]
IC50 ([2]; JAK2, 25 μM ATP, mean ± SD, n = 3, read-out: Enzyme Inhibitory Activity (IC50)): 0.364 µM
IC50 ([2]; JAK2 enzyme, mean of 3 replicates, read-out: IC50/μM mean, enzyme inhibitory activity): 0.364 µM
IC50 ([2]; JAK2 enzyme, mean ± SD of 3 replicates, read-out: IC50/μM mean ± SD, enzyme inhibitory activity): 0.364 ± 0.007 µM
IC50 ([2]; JAK2 enzyme, single-replicate fits (replicates 1-3), read-out: IC50/μM (individual replicates), enzyme inhibitory activity): 0.366 µM and 0.356 µM and 0.37 µM
Inhibition (%) ([3]; HEL cell lines, 0.0977 μM): 2.051% and -1.891% and 1.838% and 11.186% and -5.882% and -1.006%
Inhibition (%) ([3]; HEL cell lines, 0.1953 μM): 0.772% and 1.838% and 2.477% and 15.575% and -7.833% and -8.321%
Inhibition (%) ([3]; HEL cell lines, 0.3906 μM): 2.264% and 1.518% and 1.625% and 18.866% and -1.250% and -7.345%
Inhibition (%) ([3]; HEL cell lines, 0.7813 μM): 10.786% and 8.762% and 8.549% and 18.744% and 6.553% and -6.614%
Inhibition (%) ([3]; HEL cell lines, 1.5625 μM): 18.882% and 12.064% and 2.264% and 20.207% and 10.332% and -0.152%
Inhibition (%) ([3]; HEL cell lines, 3.1250 μM, 3.125 µM): 25.273% and 19.521% and 12.916% and 41.664% and 20.207% and 14.721%
Inhibition (%) ([3]; HEL cell lines, 6.2500 μM, 6.25 µM): 42.104% and 34.754% and 32.197% and 45.931% and 34.837% and 31.058%
Inhibition (%) ([3]; HEL cell lines, 12.5000 μM, 12.5 µM): 71.398% and 70.120% and 69.694% and 81.042% and 74.825% and 72.874%
IC50 ([3]; HEL cell lines, mean of 2 replicates, read-out: IC50/μM mean, cellular antiproliferative activity): 7.34 µM
IC50 ([3]; HEL cell lines, mean ± sd of 2 replicates, read-out: IC50/μM mean ± sd, cellular antiproliferative activity): 7.34 ± 0.44 µM
IC50 ([3]; HEL cell lines, single-replicate fits, read-out: IC50/μM (individual replicates), cellular antiproliferative activity): 7.03 µM and 7.65 µM
IC50 ([3]; HEL cells, 72 h, mean ± SD, read-out: Cellular Antiproliferative Activity (IC50) HEL): 7.34 ± 0.44 µM
Inhibition (%) ([4]; SET-2 cell lines, 0.0977 μM): 7.592% and 1.623% and 1.518% and -0.378% and 0.918% and 6.534%
Inhibition (%) ([4]; SET-2 cell lines, 0.1953 μM): 8.325% and -1.100% and -4.241% and -2.322% and 3.294% and 8.909%
Inhibition (%) ([4]; SET-2 cell lines, 0.3906 μM): 0.681% and -1.309% and -10.209% and -2.322% and 6.965% and 5.562%
Inhibition (%) ([4]; SET-2 cell lines, 0.7813 μM): -8.429% and 1.100% and -6.440% and -0.270% and 5.886% and 6.102%
Inhibition (%) ([4]; SET-2 cell lines, 1.5625 μM): -4.869% and -5.916% and -2.880% and 1.998% and 4.914% and -0.162%
Inhibition (%) ([4]; SET-2 cell lines, 3.1250 μM, 3.125 µM): 4.031% and -0.576% and -2.984% and 1.674% and 9.233% and -1.350%
Inhibition (%) ([4]; SET-2 cell lines, 6.2500 μM, 6.25 µM): 8.744% and 16.702% and 4.555% and 8.801% and 8.153% and 7.613%
Inhibition (%) ([4]; SET-2 cell lines, 12.5000 μM, 12.5 µM): 20.471% and 17.330% and 11.885% and 18.953% and 16.793% and 14.741%
IC50 ([4]; SET-2 cell lines, single-replicate fits, read-out: IC50/μM (individual replicates), cellular antiproliferative activity): > 25 µM
IC50 ([4]; SET-2 cells, 72 h, mean ± SD, read-out: Cellular Antiproliferative Activity (IC50) SET-2): > 25 µM
purity after incubation in DMSO stock solution ([5]; 60 ℃, 0 h): 99.59±0.13%
purity after incubation in DMSO stock solution ([5]; 60 ℃, 2 h): 99.60±0.06%
purity after incubation in DMSO stock solution ([5]; 60 ℃, 24 h): 100.00±0.00%
purity after incubation in DMSO stock solution ([5]; 60 ℃, 48 h): 99.61±0.01%
purity after incubation in DMSO stock solution ([5]; 60 ℃, 72 h): 99.43±0.09%
purity after incubation in DMSO stock solution ([5]; Room Temperature, 0 h): 99.65±0.05%
purity after incubation in DMSO stock solution ([5]; Room Temperature, 2 h): 99.65±0.05%
purity after incubation in DMSO stock solution ([5]; Room Temperature, 24 h): 100.00±0.00%
purity after incubation in DMSO stock solution ([5]; Room Temperature, 48 h): 99.99±0.01%
purity after incubation in DMSO stock solution ([5]; Room Temperature, 72 h): 99.50±0.06%
